Structures can show the parent of a compound that is named as a salt.
How the values were obtained:
Conditions in all cases: exposure time: 72 h
[1] = system: E13 (patient-derived glioblastoma stem cells of classical subtype); experiment: surviving fraction (nuclei count normalised to DMSO); higher = more cells surviving (less toxic)
[2] = system: E21 (patient-derived glioblastoma stem cells of mesenchymal subtype); experiment: as above
[3] = system: E28 (patient-derived glioblastoma stem cells of classical subtype); experiment: as above
[4] = system: E31 (patient-derived glioblastoma stem cells of proneural subtype); experiment: as above
[5] = system: E34 (patient-derived glioblastoma stem cells of proneural subtype); experiment: as above
[6] = system: E57 (patient-derived glioblastoma stem cells of mesenchymal subtype); experiment: as above
[7] = system: FT3469 (normal neural stem cell line); experiment: as above
[8] = system: E13; experiment: phenotypic distance (Euclidean, principal components) from DMSO controls (arbitrary units); higher = stronger morphological change
[9] = system: E21; experiment: as above
[10] = system: E28; experiment: as above
[11] = system: E31; experiment: as above
[12] = system: E34; experiment: as above
[13] = system: E57; experiment: as above
[14] = system: FT3469; experiment: as above
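Wherever phenotypic distance (Euclidean, principal components) from DMSO controls is given: cell Painting imaging in 384-well plates, CellProfiler features reduced to at least 20 principal components, Euclidean distance versus same-plate DMSO vehicle wells (0.1% v/v), median over six images per well.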
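Wherever surviving fraction (nuclei count normalised to DMSO) is given: nuclei counted by high-content imaging of Hoechst-stained cells in laminin-coated 384-well plates, relative to 0.1% DMSO vehicle wells, with staurosporine as cell-death control.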

In the case of `N=C(N)c1ccc(-c2ccc(-c3ccc(C(=N)N)cc3)o2)cc1` [Furamidine dihydrochloride], the surviving fraction ([1]; 4.1 nM) is reported as 0.977, the surviving fraction ([1]; 12.3 nM) is reported as 0.987 and the surviving fraction ([1]; 37 nM) is reported as 0.954. The surviving fraction ([1]; 111.1 nM) was 0.919, the surviving fraction ([1]; 333.3 nM) was 1.02 and the surviving fraction ([1]; 1000 nM) was 1.1. For the same molecule, the surviving fraction ([1]; 3000 nM) was 1.07, the surviving fraction ([2]; 4.1 nM) was 0.927 and the surviving fraction ([2]; 12.3 nM) was 0.912. For the same molecule, the surviving fraction ([2]; 37 nM) was 1, the surviving fraction ([2]; 111.1 nM) was 1.01 and the surviving fraction ([2]; 333.3 nM) was 1.02. The surviving fraction ([2]; 1000 nM) was 1.03, the surviving fraction ([2]; 3000 nM) was 0.975 and the surviving fraction ([3]; 4.1 nM) was 0.932. The surviving fraction ([3]; 12.3 nM) was 1.02, the surviving fraction ([3]; 37 nM) was 0.995 and the surviving fraction ([3]; 111.1 nM) was 1.04. The surviving fraction ([3]; 333.3 nM) was 0.901, the surviving fraction ([3]; 1000 nM) was 1.05 and the surviving fraction ([3]; 3000 nM) was 0.861. It also gave a surviving fraction ([4]; 4.1 nM) of 0.988, a surviving fraction ([4]; 12.3 nM) of 0.965 and a surviving fraction ([4]; 37 nM) of 0.911. For the same molecule, the surviving fraction ([4]; 111.1 nM) was 1.08, the surviving fraction ([4]; 333.3 nM) was 1.01 and the surviving fraction ([4]; 1000 nM) was 1.04. For the same molecule, the surviving fraction ([4]; 3000 nM) was 1.2, the surviving fraction ([5]; 4.1 nM) was 0.983 and the surviving fraction ([5]; 12.3 nM) was 1.13. The surviving fraction ([5]; 37 nM) was 1.1, the surviving fraction ([5]; 111.1 nM) was 1.21 and the surviving fraction ([5]; 333.3 nM) was 1.2. For the same molecule, the surviving fraction ([5]; 1000 nM) was 1.09, the surviving fraction ([5]; 3000 nM) was 1.2 and the surviving fraction ([6]; 4.1 nM) was 0.99. It also gave a surviving fraction ([6]; 12.3 nM) of 0.991, a surviving fraction ([6]; 37 nM) of 1.08 and a surviving fraction ([6]; 111.1 nM) of 0.988. The surviving fraction ([6]; 333.3 nM) was 0.981, the surviving fraction ([6]; 1000 nM) was 0.956 and the surviving fraction ([6]; 3000 nM) was 0.828. It also gave a surviving fraction ([7]; 4.1 nM) of 0.904, a surviving fraction ([7]; 12.3 nM) of 0.883 and a surviving fraction ([7]; 37 nM) of 0.856. For the same molecule, the surviving fraction ([7]; 111.1 nM) was 0.949, the surviving fraction ([7]; 333.3 nM) was 1.12 and the surviving fraction ([7]; 1000 nM) was 1. It also gave a surviving fraction ([7]; 3000 nM) of 1, a phenotypic distance ([8]; 4.1 nM) of 0.262 and a phenotypic distance ([8]; 12.3 nM) of 0.642. The phenotypic distance ([8]; 37 nM) was 0.687, the phenotypic distance ([8]; 111.1 nM) was 0.7 and the phenotypic distance ([8]; 333.3 nM) was 1.05. It also gave a phenotypic distance ([8]; 1000 nM) of 1.58, a phenotypic distance ([8]; 3000 nM) of 2.41 and a phenotypic distance ([9]; 4.1 nM) of 2.21. It also gave a phenotypic distance ([9]; 12.3 nM) of 0.291, a phenotypic distance ([9]; 37 nM) of 0.446 and a phenotypic distance ([9]; 111.1 nM) of 0.567. It also gave a phenotypic distance ([9]; 333.3 nM) of 1.09, a phenotypic distance ([9]; 1000 nM) of 1.6 and a phenotypic distance ([9]; 3000 nM) of 3.09. It also gave a phenotypic distance ([10]; 4.1 nM) of 0.942, a phenotypic distance ([10]; 12.3 nM) of 0.731 and a phenotypic distance ([10]; 37 nM) of 0.378. For the same molecule, the phenotypic distance ([10]; 111.1 nM) was 0.509, the phenotypic distance ([10]; 333.3 nM) was 0.894 and the phenotypic distance ([10]; 1000 nM) was 1.65. It also gave a phenotypic distance ([10]; 3000 nM) of 3.07, a phenotypic distance ([11]; 4.1 nM) of 0.537 and a phenotypic distance ([11]; 12.3 nM) of 0.559. The phenotypic distance ([11]; 37 nM) was 0.53, the phenotypic distance ([11]; 111.1 nM) was 0.588 and the phenotypic distance ([11]; 333.3 nM) was 0.79. It also gave a phenotypic distance ([11]; 1000 nM) of 1.64, a phenotypic distance ([11]; 3000 nM) of 2.69 and a phenotypic distance ([12]; 4.1 nM) of 0.516. The phenotypic distance ([12]; 12.3 nM) was 0.962, the phenotypic distance ([12]; 37 nM) was 0.515 and the phenotypic distance ([12]; 111.1 nM) was 0.866. The phenotypic distance ([12]; 333.3 nM) was 1.16, the phenotypic distance ([12]; 1000 nM) was 2.15 and the phenotypic distance ([12]; 3000 nM) was 3.96. The phenotypic distance ([13]; 4.1 nM) was 0.435, the phenotypic distance ([13]; 12.3 nM) was 0.369 and the phenotypic distance ([13]; 37 nM) was 0.461. For the same molecule, the phenotypic distance ([13]; 111.1 nM) was 0.581, the phenotypic distance ([13]; 333.3 nM) was 0.809 and the phenotypic distance ([13]; 1000 nM) was 1.18. The phenotypic distance ([13]; 3000 nM) was 2, the phenotypic distance ([14]; 4.1 nM) was 0.956 and the phenotypic distance ([14]; 12.3 nM) was 0.513. The phenotypic distance ([14]; 37 nM) was 0.833, the phenotypic distance ([14]; 111.1 nM) was 0.595 and the phenotypic distance ([14]; 333.3 nM) was 0.891. It also gave a phenotypic distance ([14]; 1000 nM) of 1.39 and a phenotypic distance ([14]; 3000 nM) of 3.24.
Work on `C[C@@H]1CN([C@H]2CC[C@](C#N)(c3ccc(F)cc3)CC2)CC[C@]1(C(=O)O)c1ccccc1` [Levocabastine hydrochloride] yielded a surviving fraction ([1]; 4.1 nM) of 0.997, a surviving fraction ([1]; 12.3 nM) of 1.04 and a surviving fraction ([1]; 37 nM) of 1.06. The surviving fraction ([1]; 111.1 nM) was 0.914, the surviving fraction ([1]; 333.3 nM) was 1.05 and the surviving fraction ([1]; 1000 nM) was 0.985. The surviving fraction ([1]; 3000 nM) was 0.918, the surviving fraction ([2]; 4.1 nM) was 0.99 and the surviving fraction ([2]; 12.3 nM) was 1.15. It also gave a surviving fraction ([2]; 37 nM) of 0.977, a surviving fraction ([2]; 111.1 nM) of 1.12 and a surviving fraction ([2]; 333.3 nM) of 1.11. It also gave a surviving fraction ([2]; 1000 nM) of 1.12, a surviving fraction ([2]; 3000 nM) of 0.854 and a surviving fraction ([3]; 4.1 nM) of 1.07. For the same molecule, the surviving fraction ([3]; 12.3 nM) was 1.17, the surviving fraction ([3]; 37 nM) was 1.13 and the surviving fraction ([3]; 111.1 nM) was 1.1. For the same molecule, the surviving fraction ([3]; 333.3 nM) was 1.1, the surviving fraction ([3]; 1000 nM) was 1.12 and the surviving fraction ([3]; 3000 nM) was 0.949. It also gave a surviving fraction ([4]; 4.1 nM) of 1.11, a surviving fraction ([4]; 12.3 nM) of 1.06 and a surviving fraction ([4]; 37 nM) of 1.13. For the same molecule, the surviving fraction ([4]; 111.1 nM) was 1.01, the surviving fraction ([4]; 333.3 nM) was 1.17 and the surviving fraction ([4]; 1000 nM) was 1.06. For the same molecule, the surviving fraction ([4]; 3000 nM) was 1.06, the surviving fraction ([5]; 4.1 nM) was 1.01 and the surviving fraction ([5]; 12.3 nM) was 0.8. For the same molecule, the surviving fraction ([5]; 37 nM) was 1.25, the surviving fraction ([5]; 111.1 nM) was 0.952 and the surviving fraction ([5]; 333.3 nM) was 0.972. It also gave a surviving fraction ([5]; 1000 nM) of 0.909, a surviving fraction ([5]; 3000 nM) of 1.22 and a surviving fraction ([6]; 4.1 nM) of 1.09. The surviving fraction ([6]; 12.3 nM) was 1.02, the surviving fraction ([6]; 37 nM) was 0.987 and the surviving fraction ([6]; 111.1 nM) was 1.11. It also gave a surviving fraction ([6]; 333.3 nM) of 1.08, a surviving fraction ([6]; 1000 nM) of 0.975 and a surviving fraction ([6]; 3000 nM) of 0.994. The surviving fraction ([7]; 4.1 nM) was 1.08, the surviving fraction ([7]; 12.3 nM) was 1.15 and the surviving fraction ([7]; 37 nM) was 1.05. For the same molecule, the surviving fraction ([7]; 111.1 nM) was 1.11, the surviving fraction ([7]; 333.3 nM) was 1.04 and the surviving fraction ([7]; 1000 nM) was 1.07. It also gave a surviving fraction ([7]; 3000 nM) of 0.784, a phenotypic distance ([8]; 4.1 nM) of 0.774 and a phenotypic distance ([8]; 12.3 nM) of 0.599. It also gave a phenotypic distance ([8]; 37 nM) of 0.564, a phenotypic distance ([8]; 111.1 nM) of 0.596 and a phenotypic distance ([8]; 333.3 nM) of 0.491. It also gave a phenotypic distance ([8]; 1000 nM) of 0.354, a phenotypic distance ([8]; 3000 nM) of 0.712 and a phenotypic distance ([9]; 4.1 nM) of 0.745. It also gave a phenotypic distance ([9]; 12.3 nM) of 0.621, a phenotypic distance ([9]; 37 nM) of 0.743 and a phenotypic distance ([9]; 111.1 nM) of 0.866. It also gave a phenotypic distance ([9]; 333.3 nM) of 0.582, a phenotypic distance ([9]; 1000 nM) of 0.688 and a phenotypic distance ([9]; 3000 nM) of 3.41. For the same molecule, the phenotypic distance ([10]; 4.1 nM) was 0.787, the phenotypic distance ([10]; 12.3 nM) was 0.763 and the phenotypic distance ([10]; 37 nM) was 0.863. It also gave a phenotypic distance ([10]; 111.1 nM) of 0.374, a phenotypic distance ([10]; 333.3 nM) of 0.741 and a phenotypic distance ([10]; 1000 nM) of 0.713. For the same molecule, the phenotypic distance ([10]; 3000 nM) was 1.04, the phenotypic distance ([11]; 4.1 nM) was 0.412 and the phenotypic distance ([11]; 12.3 nM) was 0.744. The phenotypic distance ([11]; 37 nM) was 0.868, the phenotypic distance ([11]; 111.1 nM) was 0.539 and the phenotypic distance ([11]; 333.3 nM) was 0.794. The phenotypic distance ([11]; 1000 nM) was 0.681, the phenotypic distance ([11]; 3000 nM) was 0.779 and the phenotypic distance ([12]; 4.1 nM) was 0.554. For the same molecule, the phenotypic distance ([12]; 12.3 nM) was 1.09, the phenotypic distance ([12]; 37 nM) was 0.93 and the phenotypic distance ([12]; 111.1 nM) was 0.824. The phenotypic distance ([12]; 333.3 nM) was 0.742, the phenotypic distance ([12]; 1000 nM) was 0.79 and the phenotypic distance ([12]; 3000 nM) was 0.624. For the same molecule, the phenotypic distance ([13]; 4.1 nM) was 1.04, the phenotypic distance ([13]; 12.3 nM) was 0.495 and the phenotypic distance ([13]; 37 nM) was 0.313. The phenotypic distance ([13]; 111.1 nM) was 0.928, the phenotypic distance ([13]; 333.3 nM) was 4.21 and the phenotypic distance ([13]; 1000 nM) was 0.708. The phenotypic distance ([13]; 3000 nM) was 0.745, the phenotypic distance ([14]; 4.1 nM) was 0.782 and the phenotypic distance ([14]; 12.3 nM) was 0.792. For the same molecule, the phenotypic distance ([14]; 37 nM) was 0.998, the phenotypic distance ([14]; 111.1 nM) was 0.719 and the phenotypic distance ([14]; 333.3 nM) was 3.75. The phenotypic distance ([14]; 1000 nM) was 0.437 and the phenotypic distance ([14]; 3000 nM) was 3.86.
